ChEMBL document CHEMBL1201862, “PubChem BioAssay data set” (2004)
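In this assay, cells in 96-well plates receive the compound at five concentrations for 48 hours. Endpoints are linearly interpolated between the surrounding concentrations. GI50 is the concentration that inhibits growth by half.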 Activity calls are given as the source filed them. Rule as the data show it: active = GI50 up to about 1.1 µM and inactive = higher.

Tests used:
Assay in all cases: growth of human tumour cells (NCI), 48 h
NCI/ADR-RES = system: NCI/ADR-RES
NCI-H460 = system: NCI-H460
SNB-75 = system: SNB-75
COLO 205 = system: COLO 205
T47D = system: T47D
MCF7 = system: MCF7
SF-295 = system: SF-295
RPMI-8226 = system: RPMI-8226
HOP-92 = system: HOP-92
MDA-MB-435 = system: MDA-MB-435
MOLT-4 = system: MOLT-4
SK-MEL-28 = system: SK-MEL-28
SNB-19 = system: SNB-19
EKVX = system: EKVX
HT-29 = system: HT-29
Hs-578T = system: Hs-578T
LOX IMVI = system: LOX IMVI
Malme-3M = system: Malme-3M
M14 = system: M14
NCI-H226 = system: NCI-H226

| SMILES | GI50 (NCI/ADR-RES) | GI50 (NCI-H460) | GI50 (SNB-75) | GI50 (COLO 205) | GI50 (T47D) | GI50 (MCF7) | GI50 (SF-295) | GI50 (RPMI-8226) | GI50 (HOP-92) | GI50 (MDA-MB-435) | GI50 (MOLT-4) | GI50 (SK-MEL-28) | GI50 (SNB-19) | GI50 (EKVX) | GI50 (HT-29) | GI50 (Hs-578T) | GI50 (LOX IMVI) | GI50 (Malme-3M) | GI50 (M14) | GI50 (NCI-H226) |
| --- | --- | --- | --- | --- | --- | --- | --- | --- | --- | --- | --- | --- | --- | --- | --- | --- | --- | --- | --- | --- |
| Nc1nc(N)c(-c2cccc(C(F)(F)F)c2)c(Cc2cccc(C(F)(F)F)c2)n1 | 7.57 µM (inactive) | 0.604 µM (active) | 13.6 µM (inactive) | 6.27 µM (inactive) | 12.8 µM (inactive) | 3.84 µM (inactive) | 1.52 µM (inactive) | 6.73 µM (inactive) | 12.2 µM (inactive) | 2.96 µM (inactive) | 2.9 µM (inactive) | 11.4 µM (inactive) | 5.7 µM (inactive) | 5.92 µM (inactive) | 1.18 µM (inactive) | 14.2 µM (inactive) | 1.35 µM (inactive) | 12.4 µM (inactive) | 1.22 µM (inactive) | 10.4 µM (inactive) |
| N[C@H](Cc1ccc2oc3cc(=O)c4ccccc4c-3nc2c1)C(=O)O | > 100 µM (inactive) | 25.9 µM (inactive) | 67 µM (inactive) | 30.3 µM (inactive) | > 100 µM (inactive) | 28.5 µM (inactive) | 42 µM (inactive) | 24.2 µM (inactive) | > 100 µM (inactive) | 15.5 µM (inactive) | 37.8 µM (inactive) | > 100 µM (inactive) | 34.4 µM (inactive) | > 100 µM (inactive) | 29.2 µM (inactive) | 39.6 µM (inactive) | 33.2 µM (inactive) | 21 µM (inactive) | 19.3 µM (inactive) | 40.8 µM (inactive) |
| NCCC1([N+](=O)[O-])CCNCC1 | > 100 µM (inactive) | > 100 µM (inactive) | > 100 µM (inactive) | > 100 µM (inactive) | > 100 µM (inactive) | > 100 µM (inactive) | > 100 µM (inactive) | > 100 µM (inactive) | > 100 µM (inactive) | > 100 µM (inactive) | > 100 µM (inactive) | > 26.8 µM (inactive) | > 100 µM (inactive) | > 100 µM (inactive) | > 100 µM (inactive) | > 100 µM (inactive) | > 100 µM (inactive) | > 100 µM (inactive) | > 100 µM (inactive) | > 100 µM (inactive) |
| N#Cc1c(-c2ccccc2)nc(-c2ccccc2)sc1=S | > 100 µM (inactive) | > 100 µM (inactive) | > 100 µM (inactive) | > 100 µM (inactive) | > 100 µM (inactive) | > 100 µM (inactive) | > 100 µM (inactive) | > 100 µM (inactive) | > 100 µM (inactive) | > 100 µM (inactive) |  | > 100 µM (inactive) | > 100 µM (inactive) | > 100 µM (inactive) | > 100 µM (inactive) | > 100 µM (inactive) | > 100 µM (inactive) | > 100 µM (inactive) | > 100 µM (inactive) | > 100 µM (inactive) |
| CC(=O)NC1C(OCc2ccccc2)OC(CO)C(O)C1OC(C)C(=O)N[C@@H](C)C(=O)N[C@H](CCC(=O)NCCNCCNc1c2ccccc2nc2cccc([N+](=O)[O-])c12)C(N)=O (stereo partly drawn) | 1.73 µM (inactive) | < 0.01 µM (active) | 0.205 µM (active) | < 0.0112 µM (active) | 0.0461 µM (active) | < 0.0195 µM (active) | 0.207 µM (active) | 0.0698 µM (active) | 0.0244 µM (active) | 0.0389 µM (active) | 0.0935 µM (active) | 0.245 µM (active) | 0.29 µM (active) | 0.199 µM (active) | 0.0369 µM (active) | 0.356 µM (active) | 0.136 µM (active) | 0.043 µM (active) | 0.0993 µM (active) | 0.149 µM (active) |
| O=C(NC1CCCCC1NC(c1ccccc1)(c1ccccc1)c1ccccc1)C(=O)NC1CCCCC1NC(c1ccccc1)(c1ccccc1)c1ccccc1 (stereo not drawn) | 81.5 µM (inactive) | > 100 µM (inactive) | 1.63 µM (inactive) | > 100 µM (inactive) | 60.4 µM (inactive) | > 100 µM (inactive) | > 100 µM (inactive) | > 100 µM (inactive) | 10.5 µM (inactive) | > 100 µM (inactive) | > 100 µM (inactive) | > 100 µM (inactive) | > 100 µM (inactive) | 67.3 µM (inactive) | > 100 µM (inactive) | 13.6 µM (inactive) | > 100 µM (inactive) | > 100 µM (inactive) |  | 59.3 µM (inactive) |
| Fc1cc(F)c(F)c(S)c1F | 19.4 µM (inactive) | > 100 µM (inactive) | > 100 µM (inactive) | > 100 µM (inactive) | > 100 µM (inactive) | > 100 µM (inactive) | > 100 µM (inactive) | 31.3 µM (inactive) | > 100 µM (inactive) | > 100 µM (inactive) | 23.8 µM (inactive) | > 100 µM (inactive) | > 100 µM (inactive) | 25.9 µM (inactive) | 92.9 µM (inactive) | 37.5 µM (inactive) | > 100 µM (inactive) | > 100 µM (inactive) | > 100 µM (inactive) | > 100 µM (inactive) |
| CC(=O)c1ccc2c3c1[C@H]1O[C@H]1c1cccc(c1-3)[C@@H]1O[C@H]21 | 1.98 µM (inactive) |  | 1.93 µM (inactive) | 1.71 µM (inactive) | 2.15 µM (inactive) | 2.34 µM (inactive) | 4.52 µM (inactive) | 2.09 µM (inactive) | 1.57 µM (inactive) | 1.79 µM (inactive) | 3.06 µM (inactive) | 1.79 µM (inactive) | 2.98 µM (inactive) | 1.9 µM (inactive) | 2.3 µM (inactive) | 1.53 µM (inactive) | 0.31 µM (active) | 1.37 µM (inactive) | 1.61 µM (inactive) | 29.4 µM (inactive) |
| Cc1cn(C2C=CC(COP(=O)(OCc3ccc([N+](=O)[O-])o3)N(C)CCCCCl)O2)c(=O)[nH]c1=O (stereo not drawn) | 33.8 µM (inactive) | 10 µM (inactive) | 1.58 µM (inactive) | 2.4 µM (inactive) | 1.57 µM (inactive) | 4.99 µM (inactive) | 15.6 µM (inactive) | 2.69 µM (inactive) | 1.95 µM (inactive) | 1.8 µM (inactive) | 10.1 µM (inactive) | 10.6 µM (inactive) | 6.58 µM (inactive) |  | 11.7 µM (inactive) | 2.17 µM (inactive) | 3.58 µM (inactive) | 1.79 µM (inactive) | 4.69 µM (inactive) | 10.6 µM (inactive) |
| Cc1ccc(SCC(OCn2cnc3c(Cl)nc(N)nc32)[C@H](C)F)cc1 (stereo partly drawn) | 30.1 µM (inactive) | 78.2 µM (inactive) | > 100 µM (inactive) | > 100 µM (inactive) | 71.1 µM (inactive) | 29.9 µM (inactive) | 53.7 µM (inactive) | 36.9 µM (inactive) | 63.7 µM (inactive) | > 100 µM (inactive) | 18.9 µM (inactive) | > 100 µM (inactive) | > 100 µM (inactive) |  | 82.2 µM (inactive) | > 100 µM (inactive) | > 100 µM (inactive) | 88.9 µM (inactive) | > 100 µM (inactive) | > 100 µM (inactive) |
| CCOC(=O)C1(Cc2ccccc2)Cc2ccccc2C1=O (stereo not drawn) | 21.9 µM (inactive) | 27.2 µM (inactive) | 25.4 µM (inactive) | 19.6 µM (inactive) | 28.6 µM (inactive) | 33.8 µM (inactive) | 37.1 µM (inactive) | 20.4 µM (inactive) | 16.5 µM (inactive) | 20 µM (inactive) | 19.6 µM (inactive) | 24.8 µM (inactive) |  | 20.7 µM (inactive) | 23.6 µM (inactive) | 35.1 µM (inactive) | 24.1 µM (inactive) | 18.7 µM (inactive) | 16.6 µM (inactive) | 19.7 µM (inactive) |
| CCOC(=O)CCC(NC(=O)c1ccc(Nc2nc3ccccc3nc2C(=O)OCC)s1)C(=O)OCC (stereo not drawn) | 19.9 µM (inactive) | > 100 µM (inactive) | > 100 µM (inactive) | > 100 µM (inactive) | > 100 µM (inactive) | > 100 µM (inactive) |  | > 100 µM (inactive) | > 100 µM (inactive) | > 100 µM (inactive) | > 100 µM (inactive) | > 100 µM (inactive) | 95.1 µM (inactive) | > 100 µM (inactive) | > 100 µM (inactive) | 56.4 µM (inactive) | > 100 µM (inactive) | > 100 µM (inactive) | > 100 µM (inactive) | 21.1 µM (inactive) |
| CC(C)(C)C(=O)CP(=O)(O)O | > 100 µM (inactive) | > 100 µM (inactive) | > 100 µM (inactive) | > 100 µM (inactive) | > 100 µM (inactive) | > 100 µM (inactive) | > 100 µM (inactive) | > 100 µM (inactive) | > 100 µM (inactive) | > 100 µM (inactive) | > 100 µM (inactive) | > 100 µM (inactive) | > 100 µM (inactive) | > 100 µM (inactive) | > 100 µM (inactive) | > 100 µM (inactive) | > 100 µM (inactive) | > 100 µM (inactive) | > 100 µM (inactive) | > 100 µM (inactive) |
| Cc1cc(C)c2c(O)cc(-c3ccc(Cl)cc3)nc2n1 | > 31.8 µM (inactive) | 25.8 µM (inactive) | 33.2 µM (inactive) | 24.7 µM (inactive) | 40 µM (inactive) | 27.2 µM (inactive) | 28.2 µM (inactive) | 30.3 µM (inactive) | 9.27 µM (inactive) | 6.79 µM (inactive) | 22.5 µM (inactive) | 28.3 µM (inactive) | 94 µM (inactive) | > 56.2 µM (inactive) | 19.9 µM (inactive) | > 100 µM (inactive) | 35.5 µM (inactive) | 30.8 µM (inactive) | 25.7 µM (inactive) | > 100 µM (inactive) |
